From patent publication US10479780B2, “Aminopyrazole derivatives” (Chugai Seiyaku Kabushiki Kaisha, priority 2015, dated 2019) come the findings set out here.

Like-named read-outs stand apart in the source and are kept apart here.

Assay type in all cases: biochemical
The target of one assay is T1, human Src enzyme (Homo sapiens, UniProt P12931).
T1 construct: purchased Carna Biosciences, Inc. 08-173
The assay is described as follows: Src enzyme inhibitory activity (time-resolved fluorometry, biotinylated peptide phosphorylation). Conditions: read-out: SRC_IC50. A digest of the protocol: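 Compounds were tested for blocking tyrosine phosphorylation of a biotinylated peptide substrate by recombinant human Src. Phosphorylated product was quantified by time-resolved fluorometry using europium cryptate and XL665 conjugates, and IC50 was calculated against the compound-free control.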

The target in the next assay is T2, human Yes1 enzyme (Homo sapiens, UniProt P07947).
T2 construct: made in house
T2 sequence (P07947 whole entry): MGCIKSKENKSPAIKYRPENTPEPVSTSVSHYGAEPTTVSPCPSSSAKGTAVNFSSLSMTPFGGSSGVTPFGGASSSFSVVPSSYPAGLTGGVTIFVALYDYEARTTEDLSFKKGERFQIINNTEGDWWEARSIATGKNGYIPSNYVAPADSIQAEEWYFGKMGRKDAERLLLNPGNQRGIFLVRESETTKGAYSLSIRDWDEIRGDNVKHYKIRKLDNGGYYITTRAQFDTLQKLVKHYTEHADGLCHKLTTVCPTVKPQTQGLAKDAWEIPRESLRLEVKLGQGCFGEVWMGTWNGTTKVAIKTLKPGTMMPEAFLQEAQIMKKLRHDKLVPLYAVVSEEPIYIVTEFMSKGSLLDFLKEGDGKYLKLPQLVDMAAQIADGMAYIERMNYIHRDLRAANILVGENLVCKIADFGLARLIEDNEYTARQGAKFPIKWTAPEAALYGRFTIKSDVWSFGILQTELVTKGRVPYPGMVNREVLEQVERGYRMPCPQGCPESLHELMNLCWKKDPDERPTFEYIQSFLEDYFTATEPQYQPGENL
The experiment in a line: Yes1 enzyme inhibitory activity (time-resolved fluorometry, biotinylated peptide phosphorylation). The following applies: read-out: YES_IC50. A digest of the protocol:
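Inhibition was expressed against a compound-free control to give IC50, using TR-FRET read-out (Eu-cryptate anti-pTyr antibody, streptavidin-XL665).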

A further assay deals with T3, human Lck enzyme (Homo sapiens, UniProt P06239).
T3 construct: purchased Carna Biosciences, Inc. 08-170
T3 sequence (P06239 whole entry): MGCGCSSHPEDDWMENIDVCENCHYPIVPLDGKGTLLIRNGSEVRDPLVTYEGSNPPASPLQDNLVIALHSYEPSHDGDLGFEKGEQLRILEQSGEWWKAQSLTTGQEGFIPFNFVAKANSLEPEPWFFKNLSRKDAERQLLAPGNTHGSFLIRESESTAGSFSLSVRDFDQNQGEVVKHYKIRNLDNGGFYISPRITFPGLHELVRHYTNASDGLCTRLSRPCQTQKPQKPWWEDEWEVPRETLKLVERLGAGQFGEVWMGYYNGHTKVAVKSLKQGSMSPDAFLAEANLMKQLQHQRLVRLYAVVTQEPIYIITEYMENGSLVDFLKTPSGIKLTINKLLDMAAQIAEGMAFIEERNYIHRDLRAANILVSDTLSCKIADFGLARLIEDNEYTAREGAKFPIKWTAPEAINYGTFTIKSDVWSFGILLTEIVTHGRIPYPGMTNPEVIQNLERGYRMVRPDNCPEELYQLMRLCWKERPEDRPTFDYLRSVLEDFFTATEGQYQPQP
The experiment in a line: Lck enzyme inhibitory activity (time-resolved fluorometry, biotinylated peptide phosphorylation). The following applies: read-out: LCK_IC50. A digest of the protocol: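 Readout pairs a europium cryptate-labelled anti-phosphotyrosine antibody with XL665-streptavidin, measured by time-resolved fluorescence. IC50 derived from percent inhibition against untreated controls.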

[1] abbreviates: biotinylated peptide phosphorylation.

T1 sequence (P12931 whole entry): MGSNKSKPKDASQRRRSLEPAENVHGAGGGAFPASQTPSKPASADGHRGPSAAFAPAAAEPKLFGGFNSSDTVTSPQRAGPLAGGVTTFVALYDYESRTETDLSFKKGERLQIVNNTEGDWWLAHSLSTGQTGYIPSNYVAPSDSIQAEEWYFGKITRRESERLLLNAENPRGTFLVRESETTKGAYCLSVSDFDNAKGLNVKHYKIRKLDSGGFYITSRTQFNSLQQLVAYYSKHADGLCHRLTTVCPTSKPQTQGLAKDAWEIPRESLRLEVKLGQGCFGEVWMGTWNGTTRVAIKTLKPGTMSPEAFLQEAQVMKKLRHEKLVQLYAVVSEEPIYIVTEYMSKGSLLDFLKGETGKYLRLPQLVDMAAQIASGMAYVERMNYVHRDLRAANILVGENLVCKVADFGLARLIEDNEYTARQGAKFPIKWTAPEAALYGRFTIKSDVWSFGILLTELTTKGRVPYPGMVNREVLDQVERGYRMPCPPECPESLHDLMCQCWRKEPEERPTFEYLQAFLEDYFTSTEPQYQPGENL

With `COc1ccnc(S(=O)(=O)Nc2cc3[nH]c(C(=O)c4cnn(-c5ccc(Oc6ccccc6F)cc5C)c4N)cc3cc2C)c1` [Example 5-1-510, N-[2-[5-amino-1-[4-(2-fluorophenoxy)-2-methylphenyl]pyrazole-4-carbonyl]-5-methyl-1H-indol-6-yl]-4-methoxypyridine-2-sulfonamide], the IC50 was 0.23 µM at human Src enzyme (setting [1]), 0.00092 µM at human Yes1 enzyme (setting [1]) and 0.089 µM on human Lck enzyme (setting [1]).
On to `Cc1cc2cc(C(=O)c3cnn(-c4cnc(Oc5c(F)cccc5F)cc4C)c3N)[nH]c2cc1N1C(=O)NC2(CCN(Cc3ccccc3)C2)C1=O` (stereo not drawn) [Example 5-1-363, 3-[2-[5-amino-1-[6-(2,6-difluorophenoxy)-4-methylpyridin-3-yl]pyrazole-4-carbonyl]-5-methyl-1H-indol-6-yl]-7-benzyl-1,3,7-triazaspiro[4.4]nonane-2,4-dione], for which the IC50 on human Src enzyme was determined as 0.26 µM; on human Yes1 enzyme it was 0.011 µM; at human Lck enzyme it was 0.031 µM.
With `Cc1cc(-n2ncc(C(=O)c3cc4cc(OC5CCN(C(C)C)CC5)c(N)cc4[nH]3)c2N)ccc1Oc1ccccc1F` [Example 5-1-163, (5-amino-1-(4-(2-fluorophenoxy)-3-methylphenyl)-1H-pyrazol-4-yl)(6-amino-5-((1-isopropylpiperidin-4-yl)oxy)-1H-indol-2-yl)methanone], the IC50 stood at 0.059 µM at human Src enzyme, 0.00064 µM at human Yes1 enzyme and 0.007 µM at human Lck enzyme.
Consider `Cc1cc(Oc2cccc(Cl)c2)ccc1-n1ncc(C(=O)c2cc3cc(F)c(C4CCN(C(C)C)CC4)cc3[nH]2)c1N` [Example 4-2-013, [5-amino-1-[4-(3-chlorophenoxy)-2-methylphenyl]pyrazol-4-yl]-[5-fluoro-6-(1-propan-2-ylpiperidin-4-yl)-1H-indol-2-yl]methanone], for which the IC50 at human Src enzyme (setting [1]) turned out to be 0.049 µM; on human Yes1 enzyme (setting [1]), 0.0011 µM; on human Lck enzyme (setting [1]), 0.0097 µM.
Taken in the same sequence, the figures for `CC(=O)N1CCC(c2cc3[nH]c(C(=O)c4cnn(-c5cnc(Oc6c(F)cccc6F)cc5C)c4N)cc3cc2OC(F)F)CC1` [Example 4-17-011, 1-[4-[2-[5-amino-1-[6-(2,6-difluorophenoxy)-4-methylpyridin-3-yl]pyrazole-4-carbonyl]-5-(difluoromethoxy)-1H-indol-6-yl]piperidin-1-yl]ethanone] were 0.043 µM, 0.013 µM and 0.023 µM.
Take `Cc1cc2cc(C(=O)c3cnn(-c4cnc(Oc5c(F)cccc5F)cc4C)c3N)[nH]c2cc1NS(=O)(=O)N1C2CCC1COC2` [Example 5-1-291, N-[2-[5-amino-1-[6-(2,6-difluorophenoxy)-4-methylpyridin-3-yl]pyrazole-4-carbonyl]-5-methyl-1H-indol-6-yl]-3-oxa-8-azabicyclo[3.2.1] octane-8-sulfonamide]: the IC50 at human Src enzyme is 0.42 µM; at human Yes1 enzyme it was 0.01 µM; at human Lck enzyme it was 0.13 µM.
Taken in the same sequence, the figures for `Cc1cc(Oc2ccccc2F)ccc1-n1ncc(C(=O)c2cc3cc(OCC(F)F)c(C4CCN(C(=O)OC(C)(C)C)CC4)cc3[nH]2)c1N` [Example 5-1-068, tert-Butyl 4-[2-[5-amino-1-[4-(2-fluorophenoxy)-2-methylphenyl]pyrazole-4-carbonyl]-5-(2,2-difluoroethoxy)-1H-indol-6-yl] piperidine-1-carboxylate] were 0.015 µM, 0.0056 µM and 0.0084 µM.
Take `Cc1cc(Oc2c(F)cccc2F)ncc1-n1ncc(C(=O)c2cc3cc(F)c(N4C(=O)CNC4=O)cc3[nH]2)c1N` [Example 5-1-405, 3-[2-[5-amino-1-[6-(2,6-difluorophenoxy)-4-methylpyridin-3-yl]pyrazole-4-carbonyl]-5-fluoro-1H-indol-6-yl]imidazolidine-2,4-dione]: the IC50 on human Src enzyme (setting [1]) stood at 0.066 µM; on human Yes1 enzyme (setting [1]) it was 0.0027 µM; on human Lck enzyme (setting [1]) it was 0.0032 µM.
Take `Cc1cc(-n2ncc(C(=O)c3cc4cc(C)c(N5C(=O)NC6(CCC6)C5=O)cc4[nH]3)c2N)ccc1Oc1ccccc1F` [Example 5-1-468, 7-[2-[5-amino-1-[4-(2-fluorophenoxy)-3-methylphenyl]pyrazole-4-carbonyl]-5-methyl-1H-indol-6-yl]-5,7-diazaspiro[3.4]octane-6,8-dione]: the IC50 on human Src enzyme (setting [1]) worked out at 7.8 µM; on human Yes1 enzyme (setting [1]) it was 0.011 µM; on human Lck enzyme (setting [1]), 0.43 µM.
Taken in the same sequence, the figures for `Cc1cc(Oc2ccccc2F)ncc1-n1ncc(C(=O)c2cc3cc(OCC(F)F)c(NS(=O)(=O)c4cccc(C#N)c4)cc3[nH]2)c1N` [Example 5-1-422, N-[2-[5-amino-1-[6-(2-fluoropheooxy)-4-methylpyridin-3-yl]pyrazole-4-carbonyl]-5-(2,2-difluoroethoxy)-1H-indol-6-yl]-3-cyanobenzenesulfonamide] were 0.25 µM, 0.0017 µM and 0.091 µM.
Taken in the same sequence, the figures for `Cc1cc(Oc2cc(F)ccc2F)ncc1-n1ncc(C(=O)c2cc3cc(F)c(NS(C)(=O)=O)cc3[nH]2)c1N` [Example 4-2-030, N-[2-[5-amino-1-[6-(2,5-difluorophenoxy)-4-methylpyridin-3-yl]pyrazole-4-carbonyl]-5-fluoro-1H-indol-6-yl]methanesulfonamide] were 0.11 µM, 0.0017 µM and 0.026 µM.
With `Cc1cc(-n2ncc(C(=O)c3cc4cc(OC5CCN(C(C)C)CC5)c(F)cc4[nH]3)c2N)ccc1Oc1cccc(F)c1` [Example 5-1-208, [5-amino-1-[4-(3-fluorophenoxy)-3-methylphenyl]pyrazol-4-yl]-[6-fluoro-5-(1-propan-2-ylpiperidin-4-yl)oxy-1H-indol-2-yl] methanone], the IC50 at human Src enzyme worked out at 0.45 µM; on human Yes1 enzyme, 0.0037 µM; at human Lck enzyme, 0.065 µM.
Taken in the same sequence, the figures for `Cc1cc(-n2ncc(C(=O)c3cc4cc(OC5CCN(C6CCCC6)CC5)c(-c5ccccc5Cl)cc4[nH]3)c2N)ccc1Oc1ccccc1F` [Example 5-1-285, [5-amino-1-[4-(2-fluorophenoxy)-3-methylphenyl]pyrazol-4-yl]-[6-(2-chlorophenyl)-5-(1-cyclopentylpiperidin-4-yl)oxy-1H-indol-2-yl]methanone] were 2.3 µM, 0.0052 µM and 0.5 µM.
For the molecule `Cc1cc(Oc2c(F)cccc2F)ncc1-n1ncc(C(=O)c2cc3cc(OCC(F)F)c(N4C(=O)NC5(CCN(Cc6ccccc6)C5)C4=O)cc3[nH]2)c1N` (stereo not drawn) [Example 5-1-354, 3-[2-[5-amino-1-[6-(2,6-difluorophenoxy)-4-methylpyridin-3-yl]pyrazole-4-carbonyl]-5-(2,2-difluoroethoxy)-1H-indol-6-yl]-7-benzyl-1,3,7-triazaspiro[4.4]nonane-2,4-dione], the figures for the IC50 at human Src enzyme, at human Yes1 enzyme and on human Lck enzyme were 0.013 µM, 0.0014 µM and 0.0029 µM, respectively.
Regarding `Cc1cc(Oc2c(F)cccc2F)ncc1-n1ncc(C(=O)c2cc3cc(F)c(NS(=O)(=O)c4cccc(C#N)c4)cc3[nH]2)c1N` [Example 5-1-492, N-[2-[5-amino-1-[6-(2,6-difluorophenoxy)-4-methylpyridin-3-yl]pyrazole-4-carbonyl]-5-fluoro-1H-indol-6-yl]-3-cyanobenzenesulfonamide], the IC50 on human Src enzyme (setting [1]) was 0.76 µM; at human Yes1 enzyme (setting [1]) it was 0.008 µM; at human Lck enzyme (setting [1]) it was 0.15 µM.
As for `Cc1cc(Oc2c(F)cccc2F)ncc1-n1ncc(C(=O)c2cc3cc(F)c(N(C(C)C)S(C)(=O)=O)cc3[nH]2)c1N` [Example 5-1-067, N-[2-[5-amino-1-[6-(2,6-difluorophenoxy)-4-methylpyridin-3-yl]pyrazole-4-carbonyl]-5-fluoro-1H-indol-6-yl]-N-propan-2-ylmethanesulfonamide], the IC50 was 0.062 µM at human Src enzyme, 0.0023 µM on human Yes1 enzyme and 0.0056 µM at human Lck enzyme.
On to `Cc1cc(Oc2ccccc2F)ncc1-n1ncc(C(=O)c2cc3cc(F)c(NS(=O)(=O)NCCO)cc3[nH]2)c1N` [Example 4-6-001, {5-amino-1-[6-(2-fluorophenoxy)-4-methylpyridin-3-yl]pyrazol-4-yl}-[5-fluoro-6-(2-hydroxyethylsulfamoylamino)-1H-indol-2-yl]methanone], for which the IC50 was determined as 0.07 µM at human Src enzyme (setting [1]), 0.00092 µM at human Yes1 enzyme (setting [1]) and 0.013 µM at human Lck enzyme (setting [1]).
As to `Cc1cc2cc(C(=O)c3cnn(-c4ccc(Oc5ccccc5F)cc4C)c3N)[nH]c2cc1N1C(=O)N[C@@H](Cc2ccccc2)C1=O` [Example 5-1-457, (5S)-3-[2-[5-amino-1-[4-(2-fluorophenoxy)-2-methylphenyl]pyrazole-4-carbonyl]-5-methyl-1H-indol-6-yl]-5-benzylimidazolidine-2,4-dione], the IC50 at human Src enzyme (setting [1]) stood at 0.078 µM; at human Yes1 enzyme (setting [1]) it was 0.0023 µM; at human Lck enzyme (setting [1]), 0.019 µM.
Taken in the same sequence, the figures for `Cc1cc(Oc2ccccc2F)ncc1-n1ncc(C(=O)c2cc3cc(F)c(N4CC5(CCOCC5)NS4(=O)=O)cc3[nH]2)c1N` [Example 5-1-413, [5-amino-1-[6-(2-fluorophenoxy)-4-methylpyridin-3-yl]pyrazol-4-yl]-[6-(2,2-dioxo-8-oxa-2λ6-thia-1,3-diazaspiro[4.5]decan-3-yl)-5-fluoro-1H-indol-2-yl]methanone] were 0.09 µM, 0.0015 µM and 0.017 µM.
